Assays:
HIV-1 strain YU2 = experiment: HIV-1 p24 production in infected monocyte derived macrophages (ELISA); format: cell-based; settings: Human immunodeficiency virus 1, Primary macrophage; primary macrophages infected with Yu-2, at 0.1 μM; read-out: inhibition levels of virus replication (p24)
Source text: FIG. 1. Potency of quinoline derivatives to inhibit HIV-1 production in PBMC- and macrophages-infected cells. […] Each point represents 6 donors. B) HIV-1 strain YU2 was used to infect triplicate of monocyte derived-macrophages from different donors in the absence or presence of increasing concentrations of Compound 22. […] Each point represents 8 donors. To generate monocyte derived macrophages (MDMs), monocytes were isolated using CD14 microbeads (catalog no. 130-050-201; Miltenyi) and cultured in X-VIVO10 medium (Lonza) supplemented with GM-CSF 1000 U/ml and M-CSF 100 ng/ml for 6 days. Monocytes were seeded at a cell count of 50,000 cells per well in a 96 well plate. After 6 days medium was replaced with X-VIVO10 w/o Cytokines. After 2 days Macrophages were treated with Compound 22 and/or its N-glucuronide metabolite o/n and next day infected with Yu-2 virus for 6 hrs, washed with PBS and cultured in medium containing the compounds for 12 days. Supernatant for p24 Elisa was collected 2 times a week. Cells were treated with 0.01 μM up to 30 μM and p24 antigen levels were monitored in culture supernatant over a 12 day period. Cell culture supernatant HIV p24 titration was performed by ELISA with Ingen Innotest kit (Ingen Ref 80564) according to the manufacturer's instructions.

HIV-1 = settings: human PBMCs, increasing drug pressure
Description: Resistance to Compound 22 was tested on human PBMCs and compared to current therapies. […] Various classes of antiviral agents can affect the life cycle of HIV-1 in different manners. […] The selection of drug resistant mutants in vitro can be readily accomplished by maintaining the virus in a state of sub-optimal growth, regulated by slowly increasing the amount of drug pressure applied. This technique mimics the consequences of drug therapy in patients. Therefore, in this way, novel compounds can be assessed for their selection profile in order to evaluate the likelihood of emergence of HIV-1 drug resistance in future clinical trials. In addition, combinations of drugs can be investigated in the same manner.

| Structure (SMILES) | inhibition at 0.1 µM (HIV-1 strain YU2) | Time of Selection (weeks) (HIV-1) |
| --- | --- | --- |
| O=C(O)[C@H]1O[C@@H](N(c2ccc(OC(F)(F)F)cc2)c2ccc3cccc(Cl)c3n2)[C@H](O)[C@@H](O)[C@@H]1O [N-glucuronide metabolite] | ≤ 90% |  |
| Cc1ccnc2c1NC(=O)c1cccnc1N2C1CC1 [Nevirapine, reference compound] |  | 3 weeks |
| C[C@H](Cn1cnc2c(N)ncnc21)OCP(=O)(O)O [Tenofovir, reference compound] |  | 12 weeks |
